Numbered stars: 1 amine (or outer) side, 2 acyl side, 3 side chain; on linkers, the order of the positions; unused ones are H or OH. Bridge positions count the residues as written; N and C are the ends. Square brackets hold non-standard residues; d marks the D form. Peptide text beside a SMILES is read from it. * marks the point of attachment. X5 = CC[C@@H](C)[C@@H](N[*:1])[C@@H](O)CC(=O)O[C@H](C(=O)[C@H](C)C(=O)[*:2])C(C)C; X1 = CC[C@H](C)[C@@H](N[*:1])[C@@H](O)CC(=O)O[C@H](C(=O)[C@H](C)C(=O)[*:2])C(C)C; NMeY = CN[C@@H](Cc1ccc(O)cc1)C(=O)O; dNMeL = CN[C@H](CC(C)C)C(=O)O; Cbz = O=C(OCc1ccccc1)*; Hexanoyl = CCCCCC(=O)*; Pentanoyl = CCCCC(=O)*; Propionyl = CCC(=O)*
Experiments:
[1] = system: murine splenocytes (Balb/c and C57B1/6); assay: Two-way mixed lymphocyte reaction (MLR) assay; conditions: Balb/c + C57B1/6 splenocytes, 96 h, [3H]thymidine; for IC50: read-out: two-way mixed lymphocyte reaction (MLR) suppression MLR, IC50;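 for all read-outs here: proliferation read as tritiated thymidine incorporation into newly made DNA after an overnight pulse, expressed as percent of control activity, IC50 interpolated per compound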
[2] = system: concanavalin A-induced lymphoblasts (Con A splenocytes); assay: Lymphoblast viability (LbV) assay; conditions: Con A-stimulated splenocytes (lymphoblasts), MTT
[3] = system: Balb/c splenocytes (resting lymphocytes); assay: Lymphocyte viability (LcV) assay; format: cell-based, murine; conditions: unstimulated Balb/c splenocytes, MTT
Experimental: Forty two (42) didemnin compounds (see Table 1) were evaluated for cytotoxicity to one of the lymphocyte populations in the MLR (i.e., Balb/c splenocytes). The purpose of the lymphocyte viability assay (LcV) is to measure metabolic activity in lymphocytes after they have been exposed to the compounds for the duration of an under conditions equivalent to the MLR. The inverse of the data yields cytotoxicity information about the compounds on murine lymphocytes. The rationale of using resting cells, in this case unstimulated lymphocytes, to measure cytotoxicity has a strategic importance. In the MLR the heterogenous cell populations are predominantly resting cells when the assay begins.
Test compounds were prepared in two sets as described above. Splenocytes were prepared as described previously from one murine strain (Balb/c), and a volume of 200 μL of the cell suspension was added to one set of test compounds and control wells.
Assay plates were incubated as in the MLR and then pulsed overnight 75 μL per well MTT-thiazolyl blue solution (150 μg). The plates were decanted and the resulting insoluble formazan crystals were dissolved in 200 μL of isopropyl alcohol. Absorbance at 570 nm was measured.
The LcV data were calculated as a percentage of basal metabolic activity, or percent viability, relative to BALB/c control, and an LC50 value was interpolated for each test compound.

Compound | two-way mixed lymphocyte reaction (MLR) suppression MLR, IC50 [1] | IC50 [1] | cytotoxicity to lymphocytes LbV, LC50 [2] | cytoxicity to lymphocytes LcV, LC50 [3] | cytoxicity to lymphocytes LcV, LC50 ([3]; highest concentration 10 μg/mL)
CC[C@H](C)[C@H]1NC(=O)[C@@H](NC(=O)[C@@H](CC(C)C)NC)[C@@H](C)OC(=O)[C@H](Cc2ccc(OC)cc2)N(C)C(=O)[C@@H]2CCCN2C(=O)[C@H](CC(C)C)NC(=O)[C@@H](C)C(=O)[C@H](C(C)C)OC(=O)C[C@@H]1O [Compound 2, Didemnin A] (H-[dNMeL]T[X1]LP[NMeY](Me); ester 2-C) | 0.93 ng/mL | 0.98 nM | 15 nM | > 11000 nM | > 10 µg/mL
CCCCCC(=O)N(C)[C@H](CC(C)C)C(=O)N[C@@H]1C(=O)N[C@H]([C@@H](C)CC)[C@@H](O)CC(=O)O[C@@H](C(C)C)C(=O)[C@H](C)C(=O)N[C@@H](CC(C)C)C(=O)N2CCC[C@H]2C(=O)N(C)[C@@H](Cc2ccc(OC)cc2)C(=O)O[C@@H]1C [Compound 22, N^α -Hexanoyldidemnin A] (Hexanoyl-[dNMeL]T[X1]LP[NMeY](Me); ester 2-C) | 0.022 ng/mL | 0.021 nM | 0.11 nM | 9600 nM | > 10 µg/mL
[Anhydro1st^2 ][Phth-Ala^9 ]DB [Compound 9] | 0.30 ng/mL | 0.25 nM | 1.9 nM | > 8200 nM | > 10 µg/mL
CCC(=O)N(C)[C@H](CC(C)C)C(=O)N[C@@H]1C(=O)N[C@H]([C@@H](C)CC)[C@@H](O)CC(=O)O[C@@H](C(C)C)C(=O)[C@H](C)C(=O)N[C@@H](CC(C)C)C(=O)N2CCC[C@H]2C(=O)N(C)[C@@H](Cc2ccc(OC)cc2)C(=O)O[C@@H]1C [Compound 19, N^α -Propionyldidemnin A] (Propionyl-[dNMeL]T[X1]LP[NMeY](Me); ester 2-C) | 0.37 ng/mL | 0.37 nM | 0.068 nM | 6500 nM | 6.50 µg/mL
CC[C@H](C)[C@H]1NC(=O)[C@@H](NC(=O)[C@@H](CC(C)C)N(C)C(=O)[C@@H]2CCCN2C(=O)[C@H](C)O)[C@@H](C)OC(=O)[C@H](Cc2ccc(O)cc2)NC(=O)[C@@H]2CCCN2C(=O)[C@H](CC(C)C)NC(=O)[C@@H](C)C(=O)[C@H](C(C)C)OC(=O)C[C@@H]1O [Compound 13, Didemnin N] | 37.0 ng/mL | 34.2 nM | 210 nM | > 9200 nM | > 10 µg/mL
CCCCC(=O)N(C)[C@H](CC(C)C)C(=O)N[C@@H]1C(=O)N[C@H]([C@@H](C)CC)[C@@H](O)CC(=O)O[C@@H](C(C)C)C(=O)[C@H](C)C(=O)N[C@@H](CC(C)C)C(=O)N2CCC[C@H]2C(=O)N(C)[C@@H](Cc2ccc(OC)cc2)C(=O)O[C@@H]1C [Compound 21, N^α -Pentanoyldidemnin A] (Pentanoyl-[dNMeL]T[X1]LP[NMeY](Me); ester 2-C) | 0.48 ng/mL | 0.48 nM | 0.059 nM | 9700 nM | > 10 µg/mL
CC[C@@H](C)[C@H]1NC(=O)[C@@H](NC(=O)[C@@H](CC(C)C)N(C)C(=O)OCc2ccccc2)[C@@H](C)OC(=O)[C@H](Cc2ccc(OC)cc2)N(C)C(=O)[C@@H]2CCCN2C(=O)[C@H](CC(C)C)NC(=O)[C@@H](C)C(=O)[C@H](C(C)C)OC(=O)C[C@@H]1O [Compound 5, Z-[(3S,4R,5R)-Ist^2]Didemnin A] (Cbz-[dNMeL]T[X5]LP[NMeY](Me); ester 2-C) | 0.30 ng/mL | 0.28 nM | 12 nM | > 9300 nM | > 10 µg/mL

— US6156724A, “Uses of didemnins as immunomodulating agents” (priority 1998, dated 2000)
